Assay results: PMC8036666, “Biological and Physico-Chemical Characteristics of Arginine-Rich Peptide Gemini Surfactants with Lysine and Cystine Spacers” (International Journal of Molecular Sciences, 2021)
≈ marks a conversion by molar mass, not a printed value. Where a SMILES comes first, the peptide text is derived from it. Bridges are numbered along the chain shown (N, C = ends). Roman numbers before positions name the chains, in order. Side-chain parts run from the residue outwards. [ ]: non-standard residue; d: D form. The star is where a group is joined. Myristoyl = CCCCCCCCCCCCCC(=O)*; Lauroyl = CCCCCCCCCCCC(=O)*; Decanoyl = CCCCCCCCCC(=O)*; Nle = CCCC[C@H](N)C(=O)O; Octanoyl = CCCCCCCC(=O)*

What was measured:
[1] = tested on: HaCaT cells; format: cell-based, human; settings: 24 h
Method: Cells were trypsinized, and the medium was renewed 2–3 times per week. The cytotoxicity of compounds was assessed by the determination of cell metabolic activity by colorimetric CellTilter 96® Aqueous One Solution Cell Proliferation Assay (Promega, Madison, WI, USA), according to the manufacturer’s instructions. […] Every compound was medium-soluble in 37 °C; thus, the control cells were cultured with the medium. Serial dilutions of the tested compounds were always prepared prior to use. Cells were incubated with drugs for 24 h, and then, 20 μL of the CellTiter 96®AqueousOne Solution Reagent was added to each well containing cells maintained in 100 μL of culture medium.

[2] = tested on: Staphylococcus aureus ATCC 33591; settings: ATCC 33591, 24 h
Method: The Acinetobacter baumannii ATCC BAA-1605, Enterococcus faecium ATCC 700221, Escherichia coli ML-35 ATCC 43827, Klebsiella aerogenes ATCC 13048, Klebsiella pneumoniae ATCC 700603, Pseudomonas aeruginosa ATCC 9027, Staphylococcus aureus ATCC 25923, Staphylococcus aureus ATCC 33591, Candida albicans ATCC 10231, Candida glabrata ATCC 15126, strains were acquired from the American Type Culture Collection (ATCC). All the strains were stored at −80 °C in Roti-Store cryo vials and before the tests were transferred into fresh Mueller–Hinton broth (MHB, Biocorp, Warsaw, […], Steinheim, Germany) for fungi and incubated for 24 h at 37 °C. Then, the cultures were seeded on the Mueller–Hinton agar (BioMaxima, Lublin, Poland) or Sabouraud dextrose agar (SDA, BioMaxima, Lublin, Poland) plates, respectively, and incubated as just mentioned. These agar cultures were used for further microbiological assays. […]
The MICs were determined by the broth microdilution method according to the Clinical and Laboratory Standard Institute guidelines. […] The experiments were conducted on 96-well microtiter polystyrene plates (Kartell, Noviglio, Italy). The growth was assessed visually after incubation, and the MIC was assumed as the lowest peptide concentration at which a noticeable growth of microorganisms was inhibited. All experiments were conducted in triplicate.

[3] = tested on: Staphylococcus aureus ATCC 33591; format: cell-based; settings: ATCC 33591, 24 h
Method: (§1) Biofilm is associated with life-threating infections due to its outstanding resistance to antibiotics. In this study, the antibiofilm characteristics of USCLs and gemini surfactants were evaluated.
(§2) The MBECs were determined as described previously using 96-well polystyrene flat-bottom plates. For this purpose, 24 h cultures of microorganisms were diluted to obtain a final density of 5.0 × 10^5 CFU/mL and 2.0 × 10^5 CFU/mL of bacteria and fungi, respectively. Microorganisms were diluted in MHB or RPMI-1640 with 2% D-glucose (bacteria and fungi, respectively). Briefly, 100 µL of cell suspension was added into the test plates. After 24 h of incubation at 37 °C, the wells were rinsed three times with a PBS (pH 7.4) to remove non-adherent cells. Subsequently, 100 μL of the test compounds in a concentration range (1–512 μg/mL) were added to each well. After 24 h of incubation at 37 °C, 20 μL of a cell viability reagent was added (resazurin, 4 g/L; Sigma Aldrich, St. Louis, MO, USA). The MBEC was read after 1 h. The determined values were recorded as the lowest concentration at which the reduction of resazurin (from blue to pink) was lower or equal to 10 ± 0.5% as compared to the positive (100%) and negative (0%) controls. The reduction was monitored by measuring absorbance at 570 nm (reduced) and 600 nm (oxidized) using a microplate spectrophotometer (Multiskan GO Microplate Spectrophotometer, Thermo Fisher Scientific, Vantaa, Finland). All experiments were conducted in triplicate.

[4] = tested on: Klebsiella pneumoniae ATCC 700603; format: cell-based; settings: ATCC 700603, 24 h
Method: as §1, §2

[5] = tested on: Candida albicans ATCC 10231; format: cell-based; settings: ATCC 10231, 24 h
Method: as §1, §2

[6] = tested on: Pseudomonas aeruginosa ATCC 9027; format: cell-based; settings: ATCC 9027, 24 h
Method: as §1, §2

[7] = tested on: Enterococcus faecium ATCC 700221; format: cell-based; settings: ATCC 700221, 24 h
Method: as §1, §2

[8] = tested on: Candida glabrata ATCC 15126; format: cell-based; settings: ATCC 15126, 24 h
Method: as §1, §2

[9] = tested on: Acinetobacter baumannii ATCC BAA 1605; format: cell-based; settings: ATCC BAA 1605, 24 h
Method: as §1, §2

[10] = tested on: Staphylococcus aureus ATCC 25923; format: cell-based; settings: ATCC 25923, 24 h
Method: as §1, §2

[11] = tested on: Klebsiella aerogenes ATCC 13048; format: cell-based; settings: ATCC 13048, 24 h
Method: as §1, §2

[12] = tested on: human red blood cells (hRBCs); assay: Hemolysis assay; format: cell-based; settings: red cells of human, 1 h
Method: The hemolysis assay was performed by using the method reported previously. Fresh human red blood cells (hRBCs) with anticoagulant (EDTA) were rinsed three times with a PBS by centrifugation at 800× g for 10 min and diluted with PBS. The compounds were serially diluted on a 96-well microtiter polystyrene plate, and hRBCs were added up to a final volume of 100 μL. The compound concentration ranged between 0.5 and 256 μg/mL and the final hRBCs concentration was 4% (v/v). Controls for zero (blank) and 100% hemolysis consisted of hRBCs suspended in PBS and 1% of Triton-X 100 (Carl Roth GmbH, Karlsruhe, Germany), respectively. The plate was incubated for 1 h at 37 °C and then centrifuged (800× g, 10 min, 4 °C). Subsequently, the supernatant was […] to new microtiter plates, and the absorbance at 540 nm was measured (Multiskan GO Microplate Spectrophotometer, Thermo Fisher Scientific, Vantaa, Finland). All experiments were conducted in triplicate. HC50 was calculated using an ic50.tk tool. The protocol of the study was approved by the local Bioethics Committee at the Medical University of Gdańsk (NKBBN/262/2019, approval date: 10 June 2019).

| SMILES | MIC Staphylococcus aureus ATCC 33591 [2] | IC50 [1] | MBEC Staphylococcus aureus ATCC 33591 [3] | MBEC Klebsiella pneumoniae ATCC 700603 [4] | MBEC Candida albicans ATCC 10231 [5] | MBEC Pseudomonas aeruginosa ATCC 9027 [6] | MBEC Enterococcus faecium ATCC 700221 [7] | MBEC Candida glabrata ATCC 15126 [8] | MBEC Acinetobacter baumannii ATCC BAA 1605 [9] | MBEC Staphylococcus aureus ATCC 25923 [10] | MBEC Klebsiella aerogenes ATCC 13048 [11] | HC50 [12] |
| --- | --- | --- | --- | --- | --- | --- | --- | --- | --- | --- | --- | --- |
| CCCCCCCC(=O)N[C@@H](Cc1ccccc1)C(=O)N[C@@H](CCCNC(=N)N)C(=O)N[C@@H](CCCNC(=N)N)C(=O)NCCCC[C@H](NC(=O)[C@H](CCCNC(=N)N)NC(=O)[C@H](CCCNC(=N)N)NC(=O)[C@H](Cc1ccccc1)NC(=O)CCCCCCC)C(N)=O [Compound B5] (Octanoyl-FRRK([Arg-Arg-Phe-Octanoyl])-NH2) | 4 mg/L (≈ 3.04 µM) | 169.13 ± 32.80 mg/L (≈ 128 µM) | 4 µg/mL | 256 µg/mL | 32 µg/mL | 512 µg/mL | 8 µg/mL | 256 µg/mL | 256 µg/mL | 16 µg/mL | 256 µg/mL | 181.38 ± 8.99 µg/mL |
| CCCCCCCC(=O)N[C@@H](CCCC)C(=O)N[C@@H](CCCNC(=N)N)C(=O)N[C@@H](CCCNC(=N)N)C(=O)NCCCC[C@H](NC(=O)[C@H](CCCNC(=N)N)NC(=O)[C@H](CCCNC(=N)N)NC(=O)[C@H](CCCC)NC(=O)CCCCCCC)C(N)=O [Compound B6] (Octanoyl-[Nle]RRK([Arg-Arg-Nle-Octanoyl])-NH2) | 4 mg/L (≈ 3.2 µM) | 164.17 ± 14.65 mg/L (≈ 131 µM) | 4 µg/mL | 256 µg/mL | 256 µg/mL | 256 µg/mL | 8 µg/mL | 512 µg/mL | 256 µg/mL | 16 µg/mL | 256 µg/mL | >256 µg/mL |
| CCCCCCC(CCCC)C(=O)N[C@@H](CCCNC(=N)N)C(=O)N[C@@H](CCCNC(=N)N)C(=O)NCCCC[C@H](NC(=O)[C@H](CCCNC(=N)N)NC(=O)[C@H](CCCNC(=N)N)NC(=O)C(CCCC)CCCCCC)C(N)=O (stereo partly drawn) [Compound B7] | 0.5 mg/L (≈ 0.441 µM) | 78.78 ± 6.93 mg/L (≈ 69.4 µM) | 4 µg/mL | 128 µg/mL | 64 µg/mL | 256 µg/mL | 8 µg/mL | 256 µg/mL | 64 µg/mL | 8 µg/mL | 64 µg/mL | >256 µg/mL |
| CCCCCCCCCC(=O)N[C@@H](CCCNC(=N)N)C(=O)N[C@@H](CCCNC(=N)N)C(=O)N[C@@H](CSSC[C@H](NC(=O)[C@H](CCCNC(=N)N)NC(=O)[C@H](CCCNC(=N)N)NC(=O)CCCCCCCCC)C(N)=O)C(N)=O [Compound C2] (I: Decanoyl-Arg-Arg-Cys-NH2 / II: Decanoyl-Arg-Arg-Cys-NH2; disulfide I:3-II:3) | 1 mg/L (≈ 0.854 µM) | 231.17 ± 24.37 mg/L (≈ 197 µM) | 8 µg/mL | 512 µg/mL | 32 µg/mL | 512 µg/mL | 4 µg/mL | 512 µg/mL | 256 µg/mL | 32 µg/mL | 256 µg/mL | >256 µg/mL |

The next lines start with results.

| MIC Staphylococcus aureus ATCC 33591 [2] | SMILES | IC50 [1] | MBEC Staphylococcus aureus ATCC 33591 [3] | MBEC Klebsiella pneumoniae ATCC 700603 [4] | MBEC Candida albicans ATCC 10231 [5] | MBEC Pseudomonas aeruginosa ATCC 9027 [6] | MBEC Enterococcus faecium ATCC 700221 [7] | MBEC Candida glabrata ATCC 15126 [8] | MBEC Acinetobacter baumannii ATCC BAA 1605 [9] | MBEC Staphylococcus aureus ATCC 25923 [10] | MBEC Klebsiella aerogenes ATCC 13048 [11] | HC50 [12] |
| --- | --- | --- | --- | --- | --- | --- | --- | --- | --- | --- | --- | --- |
| 16 mg/L (≈ 14.3 µM) | CCCCCCCC(=O)N[C@@H](CCCNC(=N)N)C(=O)N[C@@H](CCCNC(=N)N)C(=O)N[C@@H](CSSC[C@H](NC(=O)[C@H](CCCNC(=N)N)NC(=O)[C@H](CCCNC(=N)N)NC(=O)CCCCCCC)C(N)=O)C(N)=O [Compound C1] (I: Octanoyl-Arg-Arg-Cys-NH2 / II: Octanoyl-Arg-Arg-Cys-NH2; disulfide I:3-II:3) | >500 mg/L | 32 µg/mL | >512 µg/mL | 256 µg/mL | 512 µg/mL | 64 µg/mL | >512 µg/mL | 512 µg/mL | 64 µg/mL | >512 µg/mL | >256 µg/mL |
| 4 mg/L (≈ 3.26 µM) | CCCCCCCCCCCC(=O)N[C@@H](CCCNC(=N)N)C(=O)N[C@@H](CCCNC(=N)N)C(=O)N[C@@H](CSSC[C@H](NC(=O)[C@H](CCCNC(=N)N)NC(=O)[C@H](CCCNC(=N)N)NC(=O)CCCCCCCCCCC)C(N)=O)C(N)=O [Compound C3] (I: Lauroyl-Arg-Arg-Cys-NH2 / II: Lauroyl-Arg-Arg-Cys-NH2; disulfide I:3-II:3) | 119.47 ± 6.03 mg/L (≈ 97.3 µM) | 32 µg/mL | 256 µg/mL | 16 µg/mL | 512 µg/mL | 16 µg/mL | 128 µg/mL | 512 µg/mL | 128 µg/mL | 256 µg/mL | 36.24 ± 2.35 µg/mL |
| 32 mg/L (≈ 24.9 µM) | CCCCCCCCCCCCCC(=O)N[C@@H](CCCNC(=N)N)C(=O)N[C@@H](CCCNC(=N)N)C(=O)N[C@@H](CSSC[C@H](NC(=O)[C@H](CCCNC(=N)N)NC(=O)[C@H](CCCNC(=N)N)NC(=O)CCCCCCCCCCCCC)C(N)=O)C(N)=O [Compound C4] (I: Myristoyl-Arg-Arg-Cys-NH2 / II: Myristoyl-Arg-Arg-Cys-NH2; disulfide I:3-II:3) | 54.52 ± 15.40 mg/L (≈ 42.5 µM) | 128 µg/mL | 512 µg/mL | 16 µg/mL | >512 µg/mL | 64 µg/mL | 64 µg/mL | 512 µg/mL | 512 µg/mL | 512 µg/mL | 20.89 ± 1.06 µg/mL |
